Values quoted from earlier work as cited in patent publication US20250195458A1, “SHORT-CHAIN FATTY ACIDS FOR CANCER TREATMENT” (priority 2022, published 2025).

How the values were obtained:
colorectal cancer cells = details: literature summary of Example 2
[1] = tested on: pancreatic carcinoma cell lines (Capan-2, AsPC-1, and MiaPaCa-2); details: Capan-2, AsPC-1, MiaPaCa-2; literature summary of Example 2
human lung cancer cells = details: literature summary of Example 2
pancreatic cancer = details: literature summary of Example 2

In the case of `CC(=O)O` [Acetate], the “Anti-tumor effect in colorectal cancer (apoptosis)” value (colorectal cancer cells) is listed as “triggers apoptosis in colorectal cancer cells”.
In the case of `CC(=O)O[C@]1(C(C)=O)CC[C@H]2[C@@H]3C[C@H](C)C4=CC(=O)CC[C@]4(C)[C@H]3CC[C@@]21C` [Medroxyprogesterone acetate], the “Proliferation of pancreatic carcinoma cell lines” value [1] is listed as “blocks the proliferation”.
For `CCC(=O)O` [Propionate], the “Anti-tumor effect in colorectal cancer (apoptosis)” value (colorectal cancer cells) is given as “induces apoptosis in colon cancer” and the “Apoptosis and cell cycle arrest, lung cancer” value (human lung cancer cells) is given as “triggering cell apoptosis and cell cycle arrest”.
For `CCCC(=O)[O-].[Na+]` [Sodium butyrate], the “Invasion of pancreatic cancer” value (pancreatic cancer) is given as “hinders the invasion of pancreatic cancer” and the “Expression levels of P-gp and STAT3 in human lung cancer cells” value (human lung cancer cells) is given as “increases the expression levels of P-gp and STATS3”.
